In patent US20130109734A1 (Metabolex, Inc., priority 2010, published 2013):

Target: T1, human GPR120 (Homo sapiens, UniProt Q5NUL3)
T1 construct: host or cells: HEK293 cells co-expressing Gqi5
T1 sequence (Q5NUL3 1-361): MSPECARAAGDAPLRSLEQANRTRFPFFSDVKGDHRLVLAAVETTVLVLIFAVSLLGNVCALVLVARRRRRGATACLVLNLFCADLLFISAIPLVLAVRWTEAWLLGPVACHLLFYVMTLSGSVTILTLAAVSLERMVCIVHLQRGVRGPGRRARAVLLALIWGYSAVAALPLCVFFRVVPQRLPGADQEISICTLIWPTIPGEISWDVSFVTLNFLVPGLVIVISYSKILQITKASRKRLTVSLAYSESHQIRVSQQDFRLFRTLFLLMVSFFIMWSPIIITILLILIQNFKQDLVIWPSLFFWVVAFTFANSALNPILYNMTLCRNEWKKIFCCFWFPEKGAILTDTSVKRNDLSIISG
Assay: Intracellular Ca2+ assay in human GPR120 stable cell line (HEK293 co-expressing Gqi5), Flexstation
Assay type: cell-based
Conditions: % activity at 5 μM compared to the maximal activity of GW9508 at 6.7 μM (=100%); human GPR120 cells, Ca2+ fluorescence
Description: Human GPR120 stable cell line was purchased from Multispan Inc (26219 Eden Landing Road, Hayward, Calif. 94545). This GPR120 cell line was generated in HEK293 cells co-expressing Gqi5. In this cell line, the Flag epitope tag (DYKDDDDK) was fused to the amino terminus of human GPR120 protein.
The concentration of intracellular Ca^2+ was measured as described below. Human GPR120 cells were plated in 96 well plates (Poly-D-Lysine coated black/clear Plate, Greiner Bio-One) at 70,000 cells per well and cultured overnight in conditions of 37° C. and 5% CO2. A Ca^2+assay dye stock solution was prepared by adding 10 mL of assay buffer (HBSS/20 mM HEPES, pH 7.4) to FLIPR Calcium 4 Assay Bulk Kit (Molecular Devices). The 10 mL of Ca^2+ assay dye solution was prepared by further diluting 0.5 mL of Ca^2+ assay dye stock solution with 10 mL of assay buffer. The medium of the cells was removed and immediately 100 μL of the Ca^2+ assay dye solution was dispensed into each well followed by incubation at 37° C. and 5% CO2 for 50 minutes to incorporate the Ca^2+ dye into the cells. The cell plate was then placed in the Flexstation (Molecular Devices) for 20 minutes at 37° C. Compounds were dissolved in 100% DMSO and diluted to desired concentrations with assay buffer and placed in the Flexstation simultaneously with the cell plate for 20 minute incubation at 37° C. prior to reading. Fluorescence intensity was measured immediately following compound addition (25 μL/well) on the Flexstation at an excitation wavelength of 485 nm and an emission wavelength of 525 with 515 nm auto cutoff. The resulting increase in fluorescence intensities corresponds to increases in intracellular Ca^2+ levels.
Compounds were dissolved in 100% DMSO to a concentration of 20 mM to provide stock solutions. To determine activity against human GPR120, compounds were added with human GPR120 stably expressing cells (described above), at eight desired concentrations ranging from 0.00001 to 20 μM, in 96 well plates and fluorescence intensities were measured for 90 seconds with 2-second intervals. An EC50 value (concentration of the GPR120 agonist where 50% of the agonist's maximal activity is observed) was calculated using the changes (Max−Min) of fluorescence intensity.
To determine percent activity for a tested compound, the fluorescence intensity value obtained at a particular concentration were compared to the maximal fluorescence intensity value obtained for reference compound GW9508 (4-[[(3-phenoxyphenyl)methyl]amino]benzene propanoic acid; British Journal of Pharmacology 2006 148, 619-628) or the compound of Example 25. When GW9508 was used as the reference compound, the maximal activity of GW9508 at 6.7 μM was designated as 100% activity. When the compound of Example 25 was used as the reference compound, the maximal activity of the compound of Example 25 at 2.5 μM was designated as 100% activity. Typically, the GW9508 activity reached a maximum at a concentration of approximately 6.7 μM and typically the compound of Example 25 reached a maximum activity at approximately 2.5 μM.

| % Activity (GW9508 Reference Compound) [%] | Compound |
| --- | --- |
| 83.43 | CC(Cc1cc(F)c(OCc2cc(Cl)cc3c2OC(C)(C)C3)c(F)c1)C(=O)O (centres unmarked) [Example 38, 3-(4-((5-chloro-2,2-dimethyl-2,3-dihydrobenzofuran-7-yl)methoxy)-3,5-difluorophenyl)-2-methylpropanoic acid] |
| 95.33 | CC(Cc1cc(F)c(OCc2cccc3c2OC(C)C3C)c(F)c1)C(=O)O (centres unmarked) [Example 40, 3-(4-((2,3-dimethyl-2,3-dihydrobenzofuran-7-yl)methoxy)-3,5-difluorophenyl)-2-methylpropanoic acid] |
| 140.94 | CC(Cc1cc(F)c(OCc2c(F)c(F)cc3c2OC(C)(C)C3)c(F)c1)C(=O)O (centres unmarked) [Example 42, 3-(4-((5,6-difluoro-2,2-dimethyl-2,3-dihydrobenzofuran-7-yl)methoxy)-3,5-difluorophenyl)-2-methylpropanoic acid] |
| 157.14 | CC(Cc1ccc(COc2cccc3c2OC(C)(C)C3)c(F)c1)C(=O)O (centres unmarked) [Example 44, 3-(4-(((2,2-dimethyl-2,3-dihydrobenzofuran-7-yl)oxy)methyl)-3-fluorophenyl)-2-methylpropanoic acid] |
| 79.58 | CC(Cc1ccc(OCc2cc(F)cc3c2OCOC3)cc1)C(=O)O (centres unmarked) [Example 45, 3-(4-((6-fluoro-4H-benzo[d][1,3]dioxin-8-yl)methoxy)phenyl)-2-methylpropanoic acid] |
| 111.18 | CC1(C)Cc2cc(F)cc(COc3ccc(CCC(=O)O)c(Cl)c3)c2O1 [Example 47, 3-(2-chloro-4-((5-fluoro-2,2-dimethyl-2,3-dihydrobenzofuran-7-yl)methoxy)phenyl)propanoic acid] |
| 129.78 | COc1cc(OCc2cc(F)cc3c2OC(C)(C)C3)ccc1CCC(=O)O [Example 50, 3-(4-((5-fluoro-2,2-dimethyl-2,3-dihydrobenzofuran-7-yl)methoxy)-2-methoxyphenyl)propanoic acid] |
| 117.58 | CC1(C)Cc2cc(Cl)cc(COc3ccc(SCC(=O)O)cc3)c2O1 [Example 59, 2-((4-((5-chloro-2,2-dimethyl-2,3-dihydrobenzofuran-7-yl)methoxy)phenyl)thio)-acetic acid] |
| 141.04 | C[C@H](Cc1ccc(OCc2cc(F)cc3c2OC(C)(C)C3)cc1)C(=O)O [Example 65, (R)-3-(4-((5-fluoro-2,2-dimethyl-2,3-dihydrobenzofuran-7-yl)methoxy)phenyl)-2-methylpropanoic acid] |
| 141.82 | CC(Cc1ccc(NCc2cc(F)cc3c2OC(C)(C)C3)cc1)C(=O)O (centres unmarked) [Example 67, 3-(4-(((5-fluoro-2,2-dimethyl-2,3-dihydrobenzofuran-7-yl)methyl)amino)phenyl)-2-methylpropanoic acid] |
| 78.46 | CCOC(Cc1cc(F)c(OCc2cc(F)cc3c2OC(C)(C)C3)c(F)c1)C(=O)O (centres unmarked) [Example 69, 3-(3,5-difluoro-4-((5-fluoro-2,2-dimethyl-2,3-dihydrobenzofuran-7-yl)methoxy)phenyl)-2-ethoxypropanoic acid] |
| 133.8 | CC1(C)Cc2cc(Cl)cc(COc3ccc(CCC(=O)O)c(-c4ccccc4)c3)c2O1 [Example 71, 3-(5-((5-chloro-2,2-dimethyl-2,3-dihydrobenzofuran-7-yl)methoxy)-[1,1′-biphenyl]-2-yl)propanoic acid] |
| 114.85 | CCCc1cc(OCc2cc(Cl)cc3c2OC(C)(C)C3)c(F)cc1CCC(=O)O [Example 73, 3-(4-((5-chloro-2,2-dimethyl-2,3-dihydrobenzofuran-7-yl)methoxy)-5-fluoro-2-propylphenyl)propanoic acid] |
| 109.62 | CC(Cc1ccc(OCc2cc(Cl)cc3c2OC(C)(C)C3=O)c(F)c1)C(=O)O (centres unmarked) [Example 77, 3-(4-((5-chloro-2,2-dimethyl-3-oxo-2,3-dihydrobenzofuran-7-yl)methoxy)-3-fluorophenyl)-2-methylpropanoic acid] |
| 3.85 | CC(Cc1ccc(OCc2cc(Cl)cc3c2OC(C)(C)C3=O)c(C(F)(F)F)c1)C(=O)O (centres unmarked) [Example 79, 3-(4-((5-chloro-2,2-dimethyl-3-oxo-2,3-dihydrobenzofuran-7-yl)methoxy)-3-(trifluoromethyl)phenyl)-2-methylpropanoic acid] |

The next lines start with the compound.

| Compound | % Activity (GW9508 Reference Compound) [%] |
| --- | --- |
| CC1(C)Cc2cc(Cl)cc(COc3c(F)cc(C4CC4CC(=O)O)cc3F)c2O1 (centres unmarked) [Example 41, 2-(2-(4-((5-chloro-2,2-dimethyl-2,3-dihydrobenzofuran-7-yl)methoxy)-3,5-difluorophenyl)cyclopropyl)acetic acid] | 116.46 |
| Cc1cc(OCc2cc(F)cc3c2OC(C)(C)C3)ccc1CCC(=O)O [Example 46, 3-(4-((5-fluoro-2,2-dimethyl-2,3-dihydrobenzofuran-7-yl)methoxy)-2-methylphenyl)propanoic acid] | 113.55 |
| CC1(C)Cc2cc(Cl)cc(COc3ccc(CCC(=O)O)c(F)c3)c2O1 [Example 53, 3-(4-((5-chloro-2,2-dimethyl-2,3-dihydrobenzofuran-7-yl)methoxy)-2-fluorophenyl)-propanoic acid] | 143.19 |
| CC1(C)Cc2cc(Cl)cc(COc3cc(F)c(CCC(=O)O)c(F)c3)c2O1 [Example 54, 3-(4-((5-chloro-2,2-dimethyl-2,3-dihydrobenzofuran-7-yl)methoxy)-2,6-difluorophenyl)propanoic acid] | 138.97 |
| COc1cc(CCC(=O)O)c(Br)cc1OCc1cc(F)cc2c1OC(C)(C)C2 [Example 56, 3-(2-bromo-4-((5-fluoro-2,2-dimethyl-2,3-dihydrobenzofuran-7-yl)methoxy)-5-methoxyphenyl)propanoic acid] | 108.51 |
| CC1(C)Cc2cc(F)cc(COc3ccc(CCC(=O)O)c4c3CCC4)c2O1 [Example 63, 3-(7-((5-fluoro-2,2-dimethyl-2,3-dihydrobenzofuran-7-yl)methoxy)-2,3-dihydro-1H-inden-4-yl)propanoic acid] | 95.03 |
| CC(Cc1ccc(NC(=O)c2cc(F)cc3c2OC(C)(C)C3)cc1)C(=O)O (centres unmarked) [Example 68, 3-(4-(5-fluoro-2,2-dimethyl-2,3-dihydrobenzofuran-7-carboxamido)phenyl)-2-methylpropanoic acid] | 69.03 |
| CC1(C)Cc2cc(F)cc(CCc3ccc(OCC(=O)O)cc3)c2O1 [Example 70, 2-(4-(2-(5-fluoro-2,2-dimethyl-2,3-dihydrobenzofuran-7-yl)ethyl)phenoxy)acetic acid] | 117.72 |
| CC(Cc1ccc(OCc2cc(Cl)cc3c2OC(C)(C)C3O)c(F)c1)C(=O)O (centres unmarked) [Example 80, 3-(4-((5-chloro-3-hydroxy-2,2-dimethyl-2,3-dihydrobenzofuran-7-yl)methoxy)-3-fluorophenyl)-2-methylpropanoic acid] | 86.25 |
| CC(Cc1ccc(OCc2cc(-c3ccc(Cl)cc3)cc3c2OC(C)(C)C3)cc1)C(=O)O (centres unmarked) [Example 82, 3-(4-((5-(4-chlorophenyl)-2,2-dimethyl-2,3-dihydrobenzofuran-7-yl)methoxy)phenyl)-2-methylpropanoic acid] | 24 |

Same assay, conditions: human GPR120 stably expressing cells, Ca2+ fluorescence (Max-Min), eight concentrations 0.00001 to 20 μM

| EC50 [µM] | Compound |
| --- | --- |
| > 10 | CC(Cc1cc(F)c(OCc2cccc3c2OC(C)C3C)c(F)c1)C(=O)O (centres unmarked) [Example 40, 3-(4-((2,3-dimethyl-2,3-dihydrobenzofuran-7-yl)methoxy)-3,5-difluorophenyl)-2-methylpropanoic acid] |
| > 10 | CCOC(Cc1cc(F)c(OCc2cc(F)cc3c2OC(C)(C)C3)c(F)c1)C(=O)O (centres unmarked) [Example 69, 3-(3,5-difluoro-4-((5-fluoro-2,2-dimethyl-2,3-dihydrobenzofuran-7-yl)methoxy)phenyl)-2-ethoxypropanoic acid] |

The remaining lines, values behind:

| Compound | EC50 [µM] |
| --- | --- |
| CC1(C)Cc2cc(Cl)cc(COc3c(F)cc(C4CC4CC(=O)O)cc3F)c2O1 (centres unmarked) [Example 41, 2-(2-(4-((5-chloro-2,2-dimethyl-2,3-dihydrobenzofuran-7-yl)methoxy)-3,5-difluorophenyl)cyclopropyl)acetic acid] | > 10 |
| CC(Cc1ccc(NC(=O)c2cc(F)cc3c2OC(C)(C)C3)cc1)C(=O)O (centres unmarked) [Example 68, 3-(4-(5-fluoro-2,2-dimethyl-2,3-dihydrobenzofuran-7-carboxamido)phenyl)-2-methylpropanoic acid] | > 10 |
